Measured values as given in US20240417428A1, “POLYPEPTIDE FOR INHIBITING TRPM8 AND USE THEREOF” (ZHEJIANG UNIVERSITY, priority 2021, published 2024).
Where a SMILES comes first, the peptide text is derived from it.

Assays:
Format in all cases: cell-based
[1] = biological target: T1, TRPV3 (Homo sapiens, UniProt Q8NET8); assay: Electrophysiological recording, ligand activation of TRPV3
T1 construct: expressed in transfected cells; host or cells: HEK293T
T1 sequence (Q8NET8 1-790): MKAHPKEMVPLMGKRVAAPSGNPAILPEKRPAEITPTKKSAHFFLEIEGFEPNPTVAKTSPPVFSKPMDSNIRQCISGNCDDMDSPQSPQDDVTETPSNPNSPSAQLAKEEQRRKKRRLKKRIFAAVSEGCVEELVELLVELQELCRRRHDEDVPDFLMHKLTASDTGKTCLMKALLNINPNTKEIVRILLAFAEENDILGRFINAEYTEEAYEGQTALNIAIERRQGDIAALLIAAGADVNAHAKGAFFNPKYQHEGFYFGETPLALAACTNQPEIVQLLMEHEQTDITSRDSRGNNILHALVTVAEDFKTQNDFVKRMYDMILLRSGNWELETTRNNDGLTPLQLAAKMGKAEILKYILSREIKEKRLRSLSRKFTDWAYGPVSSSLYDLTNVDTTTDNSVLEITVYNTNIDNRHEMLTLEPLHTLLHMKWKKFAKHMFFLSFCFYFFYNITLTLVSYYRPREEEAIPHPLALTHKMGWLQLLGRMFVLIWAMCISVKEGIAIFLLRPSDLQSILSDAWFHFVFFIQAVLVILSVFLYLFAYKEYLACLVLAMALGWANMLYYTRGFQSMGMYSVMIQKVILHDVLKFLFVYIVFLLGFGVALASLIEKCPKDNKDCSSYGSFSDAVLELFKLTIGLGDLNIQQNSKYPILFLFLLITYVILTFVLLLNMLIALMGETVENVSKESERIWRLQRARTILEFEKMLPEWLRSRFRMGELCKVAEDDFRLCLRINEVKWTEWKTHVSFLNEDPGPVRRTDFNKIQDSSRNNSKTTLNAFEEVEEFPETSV
Experimental: (§1) HEK293T cells were cultured in Dulbecco's modified Eagle culture medium under a 37° C., 5% CO2 environment, 10% fetal bovine serum, penicillin (100 U/mL), and streptomycin ([…]) was needed to add into the culture medium. Transient transfection was conducted by using Lipo 2000 (Invitrogen) transfection kit and following the instruction manual.
(§2) Electrophysiological experiment recordings were performed on the cells within 24˜48 h of transient transfections. Specifically, single channel electrophysiological recordings were performed within 8 h after transfection.
(§3) Measurement of the cell currents was respectively performed in the whole-cell recording mode, inside-out recording mode or outside-out recording mode with a HEKA EPC10 amplifier. In the whole cell electrophysiological recordings, glass microelectrodes made of borosilicate material were fire-polished to a original electrode resistance of about 3-6 MΩ. Serial resistance was compensated by 60%. The whole cell electrophysiological recordings were performed at ±80 mV. For single channel electrophysiological recordings, glass microelectrodes were fire-polished to a higher resistance of 6-8 MΩ2. Current signal was sampled at 10 kHz and filtered at 2.9 kHz. Membrane potential of the cell membrane would be clamped at +80 mV. All electrophysiological recordings were performed at room temperature (22° C.) (the maximum variation is 1° C.). […]

[2] = biological target: T2, TRPM4 (Mus musculus, UniProt Q7TN37, K1045A); assay: Electrophysiological recording, ligand activation of TRPM4 (TRPM4-K1045A)
T2 construct: expressed in transfected cells; host or cells: HEK293T
T2 sequence (Q7TN37 whole entry K1045A): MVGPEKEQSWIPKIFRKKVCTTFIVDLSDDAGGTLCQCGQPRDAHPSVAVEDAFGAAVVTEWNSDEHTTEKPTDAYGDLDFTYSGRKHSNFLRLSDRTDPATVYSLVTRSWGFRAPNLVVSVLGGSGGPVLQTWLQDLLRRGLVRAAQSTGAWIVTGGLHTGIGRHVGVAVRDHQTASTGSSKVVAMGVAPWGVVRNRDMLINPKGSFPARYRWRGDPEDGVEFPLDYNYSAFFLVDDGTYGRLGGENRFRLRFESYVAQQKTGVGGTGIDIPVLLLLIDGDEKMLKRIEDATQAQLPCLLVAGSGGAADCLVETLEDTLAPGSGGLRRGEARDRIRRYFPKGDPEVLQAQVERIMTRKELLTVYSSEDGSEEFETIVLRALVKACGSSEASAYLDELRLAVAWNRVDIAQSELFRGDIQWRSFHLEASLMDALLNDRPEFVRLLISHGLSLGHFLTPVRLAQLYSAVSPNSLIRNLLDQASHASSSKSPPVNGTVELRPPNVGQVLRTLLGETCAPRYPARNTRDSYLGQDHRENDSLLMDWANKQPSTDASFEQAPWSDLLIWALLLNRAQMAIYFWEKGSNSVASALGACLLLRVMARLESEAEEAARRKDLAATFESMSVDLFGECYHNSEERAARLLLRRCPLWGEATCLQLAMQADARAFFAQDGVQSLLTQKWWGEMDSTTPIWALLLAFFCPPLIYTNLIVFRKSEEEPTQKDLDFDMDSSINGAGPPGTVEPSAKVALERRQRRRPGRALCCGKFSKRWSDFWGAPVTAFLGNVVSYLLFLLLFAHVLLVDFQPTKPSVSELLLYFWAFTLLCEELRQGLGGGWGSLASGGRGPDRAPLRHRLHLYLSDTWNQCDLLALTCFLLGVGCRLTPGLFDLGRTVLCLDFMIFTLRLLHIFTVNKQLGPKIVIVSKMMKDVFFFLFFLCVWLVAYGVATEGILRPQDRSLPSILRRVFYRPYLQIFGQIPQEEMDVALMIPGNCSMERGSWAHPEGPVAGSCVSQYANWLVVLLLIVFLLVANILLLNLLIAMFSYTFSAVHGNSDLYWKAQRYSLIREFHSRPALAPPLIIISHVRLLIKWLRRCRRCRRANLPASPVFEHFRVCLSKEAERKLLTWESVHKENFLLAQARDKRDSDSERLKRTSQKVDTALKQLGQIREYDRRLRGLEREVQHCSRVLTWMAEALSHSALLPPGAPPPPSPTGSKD
Experimental: as §1, §2, §3

[3] = biological target: T3, TRPM8 (Mus musculus, UniProt Q8R4D5); assay: Whole-cell electrophysiological recording, menthol-activated TRPM8 in transfected HEK293T cells; set-up: expressed in transfected cells; host or cells: HEK293T; details: whole-cell recording, menthol activation of TRPM8; read-out: half-inhibitory concentration (IC50) inhibiting TRPM8
T3 sequence (Q8R4D5 whole entry): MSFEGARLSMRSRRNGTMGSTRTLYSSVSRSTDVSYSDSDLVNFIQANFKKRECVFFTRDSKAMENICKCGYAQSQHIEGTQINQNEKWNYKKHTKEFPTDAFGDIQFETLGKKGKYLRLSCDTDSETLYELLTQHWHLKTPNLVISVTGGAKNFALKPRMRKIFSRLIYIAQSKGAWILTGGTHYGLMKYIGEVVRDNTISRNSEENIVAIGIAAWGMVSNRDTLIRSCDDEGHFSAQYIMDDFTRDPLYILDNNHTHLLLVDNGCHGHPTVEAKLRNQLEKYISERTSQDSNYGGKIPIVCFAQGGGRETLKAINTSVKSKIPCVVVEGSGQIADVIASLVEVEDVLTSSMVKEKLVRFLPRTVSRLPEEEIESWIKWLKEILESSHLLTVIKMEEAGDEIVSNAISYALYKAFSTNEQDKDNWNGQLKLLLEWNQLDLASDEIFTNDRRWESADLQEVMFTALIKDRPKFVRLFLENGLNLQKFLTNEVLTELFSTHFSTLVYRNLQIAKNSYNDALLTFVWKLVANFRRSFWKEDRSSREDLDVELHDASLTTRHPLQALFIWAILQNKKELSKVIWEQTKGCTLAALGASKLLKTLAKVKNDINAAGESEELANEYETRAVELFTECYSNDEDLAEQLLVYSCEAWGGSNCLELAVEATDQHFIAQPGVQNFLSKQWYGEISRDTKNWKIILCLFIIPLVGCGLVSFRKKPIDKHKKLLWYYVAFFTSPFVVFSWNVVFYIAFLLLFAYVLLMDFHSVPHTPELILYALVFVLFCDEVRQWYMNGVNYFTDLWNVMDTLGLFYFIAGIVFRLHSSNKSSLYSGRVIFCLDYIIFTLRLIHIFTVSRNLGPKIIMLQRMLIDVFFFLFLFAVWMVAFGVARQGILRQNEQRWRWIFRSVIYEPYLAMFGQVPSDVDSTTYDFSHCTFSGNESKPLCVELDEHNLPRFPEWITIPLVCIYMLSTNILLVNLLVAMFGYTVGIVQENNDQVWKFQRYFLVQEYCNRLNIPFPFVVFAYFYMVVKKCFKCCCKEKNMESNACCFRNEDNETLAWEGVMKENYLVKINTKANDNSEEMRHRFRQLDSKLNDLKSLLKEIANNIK
Experimental: as §1, §2, §3

[4] = biological target: T3, TRPM8; assay: Inside-out single-channel recording of menthol-activated TRPM8 at +80 mV; set-up: expressed in transfected cells; host or cells: HEK293T
Experimental: as §1, §2
Measurement of the cell currents was respectively performed in the whole-cell recording mode, inside-out recording mode or outside-out recording mode with a HEKA EPC10 amplifier. In the whole cell electrophysiological recordings, glass microelectrodes made of borosilicate material were fire-polished to a original electrode resistance of about 3-6 MΩ. Serial resistance was compensated by 60%. The whole cell electrophysiological recordings were performed at ±80 mV. For single channel electrophysiological recordings, glass microelectrodes were fire-polished to a higher resistance of 6-8 MΩ2. Current signal was sampled at 10 kHz and filtered at 2.9 kHz. Membrane potential of the cell membrane would be clamped at +80 mV. All electrophysiological recordings were performed at room temperature (22° C.) (the maximum variation is 1° C.).
There were different bath and pipette solutions prepared for different ion channels current measurement. For ion channels such as TRPM8, TRPV1, TRPV2, TRPV3 and TRPA1, the formula of the bath and pipette solutions was: 130 mM NaCl, 0.2 mM EDTA and 3 mM HEPES, pH=7.2. For the current measurement of TRPM4 ion channel, the formula of the bath solution was: 130 mM NaCl and 3 mM HEPES, pH=7.2, and the formula of the pipette solution was: 500 μM CaCl2), 130 mM NaCl and 3 mM HEPES, pH=7.2. For the current measurement of TRPM2 ion channel, the formula of the bath solution was: 147 mM NaCl, 2 mM KCl, 1 mM MgCl2, 10 mM HEPES, 2 mM CaCl2) 13 mM Glucose, pH=7.4, and the formula of the pipette solution was: 147 mM NaCl, 1 mM MgCl2, 10 mM HEPES, pH=7.4. For the current measurement of Nav1.5, Nav1.7 ion channels, the formula of the bath solution was: 140 mM NaCl, 3 mM KCl, 1 mM MgCl2, 1 mM CaCl2), 10 mM HEPES, pH=7.2 and the formula of the pipette solution was: 140 mM CsF, 1 mM EGTA, 10 mM NaCl, 10 mM MgCl2, 3 mM KCl, pH=7.2. To evoke sodium channel current, the membrane potential was increased from −80 mV to +10 mV.
A rapid solution changer with a gravity-driven perfusion system (RSC-200, BioLogic) was used to rapidly perfuse specific solutions into the cells to be tested. Each solution was delivered through a separate tube so that there is no mixing of solutions. The glass microelectrode with a membrane patch was placed directly below the outlet of the perfusion tube during the electrophysiology recordings.

C[C@@H]1NC(=O)[C@H](CCCNC(=N)N)NC(=O)[C@H](CC(=O)O)NC(=O)[C@H](CCCNC(=N)N)NC(=O)[C@H](CCCNC(=N)N)NC(=O)[C@@H](N)CSSC[C@@H](C(=O)O)NC(=O)[C@H](CCCNC(=N)N)NC(=O)[C@H](CCC(N)=O)NC(=O)[C@H](CCCNC(=N)N)NC(=O)[C@H](Cc2ccc(O)cc2)NC(=O)[C@H](Cc2c[nH]cn2)NC(=O)[C@H](CCCNC(=N)N)NC1=O [DeC-1.2, CRRDRARHYRQRC] (HELM PEPTIDE1{C.R.R.D.R.A.R.H.Y.R.Q.R.C}$PEPTIDE1,PEPTIDE1,1:R3-13:R3$$$V2.0; N-terminus and C-terminus assumed)
IC50 [1]: > 100 µM | inhibition of ligand activation of TRPV3 ([1]; DeC-1.2 5 μM): failed to inhibit | IC50 [2]: > 10 µM | IC50 [3]: 0.0045 ± 0.003 µM | open probability of TRPM8 ([4]; DeC-1.2 100 μM with saturated menthol (1 mM), n=5): 18.83±1.92% | change of single-channel conductance of menthol-activated TRPM8 ([4]; DeC-1.2 100 μM, menthol 1 mM): decreases significantly | change of open probability of menthol-activated TRPM8 ([4]; DeC-1.2 100 μM, menthol 1 mM, P<0.0001): decreases significantly
